From article PMC8780580, “The Neuroactive Steroid Pregnanolone Glutamate: Anticonvulsant Effect, Metabolites and Its Effect on Neurosteroid Levels in Developing Rat Brains” (Pharmaceuticals, 2021)
Counter-ions that a name gives are not always drawn.

What was measured:
[1] = test system: α4β3γ2 GABAARs; parameters: method as in PMID 15294445; details: at 100 μM; cited from earlier work
[2] = test system: α4β3δ GABAARs; parameters: method as in PMID 15294445; details: cited from earlier work
[3] = Steroidomic (GC-MS/MS) analysis of hippocampal tissue after PA-G administration; details: for fold increase in the concentration in the rat hippocampus above the basal levels / percentage of total significantly increased (5β) steroids in the rat hippocampus / concentration at 20 min: 20 min after PA-G i.p., 1 mg/kg in CDX; for increase in concentration compared with basal levels: after PA-G i.p.; for increase in concentration compared with basal levels / concentration at 20 min: 1 mg/kg; for concentration at 20 min: male, Wistar, rat, in vivo, ip, Steroid concentration in hippocampal tissue, PA-G-Treated (P);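 for all read-outs here: hippocampal steroids quantified by GC-MS/MS, covering free and conjugated forms after hydrolysis, compared against intact rats and rats injected with CDX vehicle alone, five animals per group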
Experimental: In a separate experiment, samples of the hippocampus were obtained from male albino Wistar rats in 6 experimental groups consisting of P12 and P25 animals that were either intact (I), controls (C, i.p. application of a solution of CDX), or in the experimental group (i.p. application of PA-G in a solution of CDX at a dose of 1 mg/kg). Each group consisted of 5 animals. The animals were sacrificed using ether anaesthesia (Penta, Czech Republic) 30 min after administration of the drug. The hippocampi were quickly removed, weighed, and frozen at −80 °C in sterile plastic microvials until analysis.
An amount of 17–100 mg of the hippocampal tissue was minced and then administered into screw-cap tubes. Next, 2 mL of methanol with a mixture of internal standards was added, and the samples were incubated for 1 week in a refrigerator at 4 °C with agitation for 2 min once a day. Afterwards, the extract was transferred into new screw-cap tubes and dried in a vacuum centrifuge at 45 °C. After that, 1 mL of water of chromatographic purity was added, and the samples were further treated as described in our recently published paper [76].
Briefly, the unconjugated steroids were extracted from a testing sample with diethyl-ether, the extract was dried, and the lipids were separated by partitioning between a mixture of methanol with water (4:1, v/v) and pentane. The pentane phase was discarded, and the polar phase was dried and used for further analysis of the unconjugated steroids. Steroid conjugates remaining in the polar residue after diethyl ether were hydrolyzed to their parent hydroxy steroids (unconjugated molecules) and analyzed.

[4] = within 0.5 min of uptake; cited from earlier work
[5] = test system: pentylenetetrazol-induced seizures; test: Pentylenetetrazol (PTZ)-induced seizures in 12- and 25-day-old rats; format: in vivo, male Wistar albino rats
Experimental: Solutions of PA-G and PA-S were administered intraperitoneally at a concentration of 1 mg/mL, and doses of 1, 5, 10, and 20 mg/kg were used. The solutions of zuranolone were administered intraperitoneally at a concentration of 1 mg/mL, and doses of 0.5, 1, 5, and 10 mg/kg were used. Controls were injected with CDX solution in a volume corresponding to the highest dose (i.e., 20 mL/kg). The same control group was used for PA-S and PA-G. Pentylenetetrazol (PTZ, Sigma Aldrich, Gillingham, Dorset, UK) was dissolved in water in a concentration of 50 mg/mL and was administered subcutaneously at a dose of 100 mg/kg 20 min after the administration of PA-G or PA-S. Each age and dose group comprised 8 animals. The rats were placed individually into plexiglass boxes and were then observed for 30 min after PTZ injection. The incidence, severity, and latencies of seizures were assessed. Younger animals were placed on a pad heated to 34 °C, i.e., to the temperature in the nest for the whole duration of the experiment because of immature thermoregulation. Generalized tonic-clonic or clonic seizures with a loss of righting reflexes were present after a dose of 100 mg/kg of PTZ in all control animals in both age groups. […] The severity of seizures was quantified using a five-point scale as follows: 0—no changes; 0.5—abnormal behaviour (e.g., automatisms, increased orienting reaction); 1—isolated myoclonic jerks; 2—atypical or prolonged minimal seizures; 3—clonic seizures (mS) involving head and forelimb muscles with preserved righting reflexes (older-term minimal pentetrazol seizures); 4—generalized seizures without the tonic phase (GCS); 5—complete generalized tonic-clonic seizures (GTCS).

[6] = test system: GABAARs; details: allosteric displacement of [35S]-TBPS from the picrotoxin binding site on GABAARs; cited from earlier work
[7] = test system: postpartum depression; parameters: method as in PMID 34190962; details: women with postpartum depression, Phase 3 clinical trial; cited from earlier work
[8] = P12 rats, i.p. doses of 5 and 10 mg/kg

## CC(=O)[C@@]1(O)CCC2C3CC[C@@H]4C[C@H](O)CC[C@]4(C)C3CC[C@@]21C (stereo partly drawn) [17-OH-PA, 17-hydroxy-pregnanolone]
[1]
  greatest response: 20%
[2]
  maximum efficacy: 57%
[2]; read-out: EC50 (potentiation of responses)
  EC50: 3.5 µM
[3]; 20 min after PA-G administration
  proportion of the brain's 5β-steroids in the tissue: about three-quarters
[3]; P12
  fold increase in the concentration in the rat hippocampus above the basal levels: 562 x
  percentage of total significantly increased (5β) steroids in the rat hippocampus: 73.7%
[3]; P12 animals
  increase in concentration compared with basal levels: up to 560 fold
[3]; P12 vs. P25 animals, 20 min after PA-G administration
  metabolite of PA-G identified in hippocampus: major metabolite
[3]; P25
  fold increase in the concentration in the rat hippocampus above the basal levels: 35.8 x
  percentage of total significantly increased (5β) steroids in the rat hippocampus: 75.9%
[3]; P25 animals
  increase in concentration compared with basal levels: 36 fold
[3]; 12-day-old rats
  concentration at 20 min: 518 ng/g
[3]; 25-day-old rats
  concentration at 20 min: 40.8 ng/g

## C[C@]12CC[C@H](OS(=O)(=O)O)CC1=CC[C@@H]1[C@@H]2CC[C@]2(C)C(=O)CC[C@@H]12 [Dehydroepiandrosterone sulfate (DHEA-S), 17-oxo-androst-5-en-3β-yl 3-sulfate]
[4]
  desulfation: > 50%
[3]; 12-day-old rats
  concentration at 20 min: 4.86 ng/g
[3]; 25-day-old rats
  concentration at 20 min: 1.52 ng/g

## C[C@@]1(O)CC[C@H]2[C@H](CC[C@@H]3[C@@H]2CC[C@]2(C)[C@@H](C(=O)Cn4cc(C#N)cn4)CC[C@@H]32)C1 [zuranolone]
[5]; [8]
  development of GS: abolished
  seizure severity: significant decrease in seizure severity
[5]; P25 rats
  latencies of mS: increase in the latencies of mS
[5]; P25 rats, all tested doses (0.5, 1, 5, 10 mg/kg i.p.)
  development of GS: completely suppressed development of GS
[5]; P25 rats, i.p. dose of only 1 mg/kg
  seizure severity: significantly decreased seizure severity
[5]; P25 rats, i.p. doses of 5 and 10 mg/kg
  development of mS: suppressed the development of mS
[6]
  IC50: 0.007 µM
[7]
  symptoms of depression: improved the symptoms of depression
